The source of these data is PubChem BioAssay (NCI).

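All cell lines were grown in 96-well plates and treated with compound for 48 hours. The concentration for 50% growth inhibition is given as GI50. TGI denotes the concentration required for complete inhibition of growth.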 Where only a bound is given, the exact number is not on record here.

The first test deals with HCT-15 colon. In words: NCI tumour cell line growth inhibition, 48 h.
As to `CN=C(N)N/N=C(\c1ccccc1)c1ccc(Br)cc1`, the GI50 was 0.306 µM and the TGI came out at 7.24 µM.

For the compound `COc1cc(/C=C\[N+](=O)[O-])ccc1O`, the GI50 is 1.85 µM and the TGI was 6.03 µM.

With `C=CC(=O)N[C@H]1C=C(C)c2c(-c3cnc4ccccc4c3)c3c(N)ncnc3n2C1`, the GI50 was 23.1 µM and the TGI is greater than 80.3 µM.

Take `C=C1C(O)C2CCC(C)(C)C(=O)C2=C(CC(C)C)C12CC2` (stereo not given): the GI50 was 54.4 µM and the TGI is greater than 100 µM.

Regarding `CCOc1ccc(S(=O)(=O)/N=C2\C=C(SCC(=O)O)C(=O)c3ccccc32)cc1`, the GI50 is 4.77 µM and the TGI came to 17.2 µM.

Regarding `C[C@@H]1CC[C@@H]2[C@@H]1[C@H](OC(=O)/C=C/c1ccccc1)[C@]1(c3ccccc3)C[C@@H](OC(=O)CO)[C@@]2(C)O1`, the GI50 was 12.7 µM and the TGI came to 32.7 µM.

`O=C1/C(=C/c2ccc(F)cc2)CCOc2ccc([N+](=O)[O-])cc21`: the GI50 is 41.6 µM and the TGI was greater than 100 µM.

For `O=C(CSc1nc2ccc([N+](=O)[O-])cc2[nH]1)Nc1ccc(F)c(Cl)c1`, the GI50 is 2.84 µM and the TGI came out at 13 µM.

Consider `Cc1nn(-c2ccc(F)cc2)c2ncnc(Nc3ccc(NC(=O)Nc4ccc(Cl)c(C(F)(F)F)c4)cc3)c12`, for which the GI50 is 2.73 µM and the TGI was 12.5 µM.

Consider `O=C(CCN1CCN(c2cnc3ccccc3n2)CC1)c1csc2ccccc12`, for which the GI50 is 62.6 µM and the TGI was greater than 100 µM.

Regarding `Cc1ccn2c3c(c(C(=O)O)c2c1)C(=O)c1ccccc1C3=O`, the GI50 was 5.14 µM and the TGI was greater than 100 µM.

On to `COc1cc2c3c(cccc3c1)C(=O)N(CCN1CCCC1)C2=O`, for which the GI50 was 2.63 µM and the TGI is greater than 100 µM.

Turning to `COc1cc2ncn(-c3cc(OCc4ccccc4Cl)c(C(N)=O)s3)c2cc1OC`, the GI50 is 0.269 µM and the TGI is greater than 25 µM.

On to `Cc1ccc2c(C(C[N+](=O)[O-])c3cccs3)c(-c3ccccc3)[nH]c2c1` (stereo not given), for which the GI50 was 1.44 µM and the TGI was found to be 7.46 µM.

Take `N/C(CC(=O)Nc1cc(C(F)(F)F)ccc1Cl)=N\O`: the TGI is greater than 100 µM.

A further test relates to OVCAR-5 ovarian. Kind of test: NCI tumour cell line growth inhibition, 48 h.
Turning to `CN=C(N)N/N=C(\c1ccccc1)c1ccc(Br)cc1`, the GI50 was 0.494 µM and the TGI was found to be 5.62 µM.

As for `COc1cc(/C=C\[N+](=O)[O-])ccc1O`, the GI50 was 3.94 µM and the TGI was 14.5 µM.

In the case of `C=CC(=O)N[C@H]1C=C(C)c2c(-c3cnc4ccccc4c3)c3c(N)ncnc3n2C1`, the GI50 was 21.2 µM and the TGI was 93.3 µM.

Consider `C=C1C(O)C2CCC(C)(C)C(=O)C2=C(CC(C)C)C12CC2` (stereo not given), for which the GI50 is greater than 100 µM and the TGI is greater than 100 µM.

As to `CCOc1ccc(S(=O)(=O)/N=C2\C=C(SCC(=O)O)C(=O)c3ccccc32)cc1`, the GI50 was 5.5 µM and the TGI was 25.1 µM.

In the case of `C[C@@H]1CC[C@@H]2[C@@H]1[C@H](OC(=O)/C=C/c1ccccc1)[C@]1(c3ccccc3)C[C@@H](OC(=O)CO)[C@@]2(C)O1`, the GI50 was 15.5 µM and the TGI came to 34.5 µM.

As for `O=C1/C(=C/c2ccc(F)cc2)CCOc2ccc([N+](=O)[O-])cc21`, the GI50 was 2 µM and the TGI worked out at 4.62 µM.

In the case of `O=C(CSc1nc2ccc([N+](=O)[O-])cc2[nH]1)Nc1ccc(F)c(Cl)c1`, the GI50 was 2.65 µM and the TGI was 11.5 µM.

Turning to `Cc1nn(-c2ccc(F)cc2)c2ncnc(Nc3ccc(NC(=O)Nc4ccc(Cl)c(C(F)(F)F)c4)cc3)c12`, the GI50 is 2.81 µM and the TGI was determined as 11.9 µM.

Take `O=C(CCN1CCN(c2cnc3ccccc3n2)CC1)c1csc2ccccc12`: the GI50 is greater than 100 µM and the TGI is greater than 100 µM.

Consider `Cc1ccn2c3c(c(C(=O)O)c2c1)C(=O)c1ccccc1C3=O`, for which the GI50 was 30.5 µM and the TGI was greater than 100 µM.

With `COc1cc2c3c(cccc3c1)C(=O)N(CCN1CCCC1)C2=O`, the GI50 was 4.12 µM and the TGI is greater than 100 µM.

On to `COc1cc2ncn(-c3cc(OCc4ccccc4Cl)c(C(N)=O)s3)c2cc1OC`, for which the GI50 was 0.492 µM and the TGI is greater than 25 µM.

On to `Cc1ccc2c(C(C[N+](=O)[O-])c3cccs3)c(-c3ccccc3)[nH]c2c1` (stereo not given), for which the GI50 was 4.07 µM and the TGI came out at 11.1 µM.

As for `N/C(CC(=O)Nc1cc(C(F)(F)F)ccc1Cl)=N\O`, the TGI is greater than 100 µM.

In another test the test system is CAKI-1 renal. In words: NCI tumour cell line growth inhibition, 48 h.
For the compound `CN=C(N)N/N=C(\c1ccccc1)c1ccc(Br)cc1`, the GI50 is 0.596 µM and the TGI stood at 13.2 µM.

For `COc1cc(/C=C\[N+](=O)[O-])ccc1O`, the GI50 is 2.85 µM and the TGI amounted to 10.9 µM.

For `C=CC(=O)N[C@H]1C=C(C)c2c(-c3cnc4ccccc4c3)c3c(N)ncnc3n2C1`, the GI50 is 1.82 µM and the TGI was 17.6 µM.

`C=C1C(O)C2CCC(C)(C)C(=O)C2=C(CC(C)C)C12CC2` (stereo not given): the GI50 was 31.2 µM and the TGI stood at 86.6 µM.

Consider `CCOc1ccc(S(=O)(=O)/N=C2\C=C(SCC(=O)O)C(=O)c3ccccc32)cc1`, for which the GI50 was 7.76 µM and the TGI amounted to 20.8 µM.

Turning to `C[C@@H]1CC[C@@H]2[C@@H]1[C@H](OC(=O)/C=C/c1ccccc1)[C@]1(c3ccccc3)C[C@@H](OC(=O)CO)[C@@]2(C)O1`, the GI50 is 0.504 µM and the TGI stood at 18.4 µM.

Regarding `O=C1/C(=C/c2ccc(F)cc2)CCOc2ccc([N+](=O)[O-])cc21`, the GI50 was 2.08 µM and the TGI was determined as 4.73 µM.

Consider `O=C(CSc1nc2ccc([N+](=O)[O-])cc2[nH]1)Nc1ccc(F)c(Cl)c1`, for which the GI50 was 1.95 µM and the TGI was found to be 7.33 µM.

In the case of `Cc1nn(-c2ccc(F)cc2)c2ncnc(Nc3ccc(NC(=O)Nc4ccc(Cl)c(C(F)(F)F)c4)cc3)c12`, the GI50 is 1.83 µM and the TGI was found to be 4.75 µM.

Regarding `O=C(CCN1CCN(c2cnc3ccccc3n2)CC1)c1csc2ccccc12`, the GI50 was 18.9 µM and the TGI was 35.8 µM.

Turning to `Cc1ccn2c3c(c(C(=O)O)c2c1)C(=O)c1ccccc1C3=O`, the GI50 was greater than 100 µM and the TGI was greater than 100 µM.

For the compound `COc1cc2c3c(cccc3c1)C(=O)N(CCN1CCCC1)C2=O`, the GI50 was 2.56 µM and the TGI is greater than 100 µM.

Take `COc1cc2ncn(-c3cc(OCc4ccccc4Cl)c(C(N)=O)s3)c2cc1OC`: the GI50 is 3.02 µM and the TGI was greater than 25 µM.

Consider `Cc1ccc2c(C(C[N+](=O)[O-])c3cccs3)c(-c3ccccc3)[nH]c2c1` (stereo not given), for which the GI50 is 1.04 µM and the TGI stood at 5.12 µM.

Turning to `N/C(CC(=O)Nc1cc(C(F)(F)F)ccc1Cl)=N\O`, the TGI is greater than 100 µM.

In another test the test system is SK-MEL-2 melanoma. In words: NCI tumour cell line growth inhibition, 48 h.
On to `CN=C(N)N/N=C(\c1ccccc1)c1ccc(Br)cc1`, for which the GI50 was 0.359 µM and the TGI amounted to 1.97 µM.

Take `COc1cc(/C=C\[N+](=O)[O-])ccc1O`: the GI50 was 2.8 µM and the TGI was determined as 10.4 µM.

Consider `C=CC(=O)N[C@H]1C=C(C)c2c(-c3cnc4ccccc4c3)c3c(N)ncnc3n2C1`, for which the GI50 is 13.4 µM and the TGI was 35.2 µM.

As to `C=C1C(O)C2CCC(C)(C)C(=O)C2=C(CC(C)C)C12CC2` (stereo not given), the GI50 was greater than 100 µM and the TGI was greater than 100 µM.

For the compound `CCOc1ccc(S(=O)(=O)/N=C2\C=C(SCC(=O)O)C(=O)c3ccccc32)cc1`, the GI50 was 2.62 µM and the TGI is 5.8 µM.

`C[C@@H]1CC[C@@H]2[C@@H]1[C@H](OC(=O)/C=C/c1ccccc1)[C@]1(c3ccccc3)C[C@@H](OC(=O)CO)[C@@]2(C)O1`: the GI50 was 19.6 µM and the TGI turned out to be 38.3 µM.

`O=C1/C(=C/c2ccc(F)cc2)CCOc2ccc([N+](=O)[O-])cc21`: the GI50 is 3.17 µM and the TGI stood at 11.6 µM.

`O=C(CSc1nc2ccc([N+](=O)[O-])cc2[nH]1)Nc1ccc(F)c(Cl)c1`: the GI50 is 2.22 µM and the TGI stood at 6.35 µM.

With `Cc1nn(-c2ccc(F)cc2)c2ncnc(Nc3ccc(NC(=O)Nc4ccc(Cl)c(C(F)(F)F)c4)cc3)c12`, the GI50 is 2.37 µM and the TGI turned out to be 5.66 µM.

With `O=C(CCN1CCN(c2cnc3ccccc3n2)CC1)c1csc2ccccc12`, the GI50 is greater than 100 µM and the TGI was greater than 100 µM.

`Cc1ccn2c3c(c(C(=O)O)c2c1)C(=O)c1ccccc1C3=O`: the GI50 was greater than 100 µM and the TGI was greater than 100 µM.

For the compound `COc1cc2c3c(cccc3c1)C(=O)N(CCN1CCCC1)C2=O`, the GI50 is 3.14 µM and the TGI stood at 6.61 µM.

Turning to `COc1cc2ncn(-c3cc(OCc4ccccc4Cl)c(C(N)=O)s3)c2cc1OC`, the GI50 is 1.5 µM and the TGI is greater than 15.9 µM.

Turning to `Cc1ccc2c(C(C[N+](=O)[O-])c3cccs3)c(-c3ccccc3)[nH]c2c1` (stereo not given), the GI50 is 2.24 µM and the TGI is 10.5 µM.

Compound `N/C(CC(=O)Nc1cc(C(F)(F)F)ccc1Cl)=N\O` yielded a TGI greater than 100 µM.

The test system of another test is DU-145 prostate. In words: NCI tumour cell line growth inhibition, 48 h.
As to `CN=C(N)N/N=C(\c1ccccc1)c1ccc(Br)cc1`, the GI50 was 0.366 µM and the TGI stood at 10.5 µM.

As for `COc1cc(/C=C\[N+](=O)[O-])ccc1O`, the GI50 is 2.41 µM and the TGI is 5.93 µM.

In the case of `C=CC(=O)N[C@H]1C=C(C)c2c(-c3cnc4ccccc4c3)c3c(N)ncnc3n2C1`, the GI50 was 8.05 µM and the TGI was greater than 100 µM.

Turning to `C=C1C(O)C2CCC(C)(C)C(=O)C2=C(CC(C)C)C12CC2` (stereo not given), the GI50 is 84.9 µM and the TGI is greater than 100 µM.

Regarding `CCOc1ccc(S(=O)(=O)/N=C2\C=C(SCC(=O)O)C(=O)c3ccccc32)cc1`, the GI50 was 2.04 µM and the TGI was found to be 5.86 µM.

With `C[C@@H]1CC[C@@H]2[C@@H]1[C@H](OC(=O)/C=C/c1ccccc1)[C@]1(c3ccccc3)C[C@@H](OC(=O)CO)[C@@]2(C)O1`, the GI50 is 15.9 µM and the TGI is 33.8 µM.

For `O=C1/C(=C/c2ccc(F)cc2)CCOc2ccc([N+](=O)[O-])cc21`, the GI50 is 5.68 µM and the TGI stood at 18.1 µM.

For the compound `O=C(CSc1nc2ccc([N+](=O)[O-])cc2[nH]1)Nc1ccc(F)c(Cl)c1`, the GI50 was 3.24 µM and the TGI worked out at 13.4 µM.

Consider `Cc1nn(-c2ccc(F)cc2)c2ncnc(Nc3ccc(NC(=O)Nc4ccc(Cl)c(C(F)(F)F)c4)cc3)c12`, for which the GI50 is 3.17 µM and the TGI amounted to 11.7 µM.

In the case of `O=C(CCN1CCN(c2cnc3ccccc3n2)CC1)c1csc2ccccc12`, the GI50 was 29.5 µM and the TGI is greater than 100 µM.

`Cc1ccn2c3c(c(C(=O)O)c2c1)C(=O)c1ccccc1C3=O`: the GI50 was 1.68 µM and the TGI is 3.18 µM.

`COc1cc2c3c(cccc3c1)C(=O)N(CCN1CCCC1)C2=O`: the GI50 was 2.13 µM and the TGI is 5.97 µM.

As for `COc1cc2ncn(-c3cc(OCc4ccccc4Cl)c(C(N)=O)s3)c2cc1OC`, the GI50 is 0.105 µM and the TGI came to 0.511 µM.

As to `Cc1ccc2c(C(C[N+](=O)[O-])c3cccs3)c(-c3ccccc3)[nH]c2c1` (stereo not given), the GI50 was 3.7 µM and the TGI stood at 16.9 µM.

`N/C(CC(=O)Nc1cc(C(F)(F)F)ccc1Cl)=N\O` came in with a TGI greater than 100 µM.
